Experimental findings from paper PMC5750214 (Nature Communications, 2018) are described below.

For experiment [1], the target named is T1, human AT1 receptor (angiotensin II type 1 receptor) (Homo sapiens, UniProt P30556, C289S).
T1 construct: gene AGTR1; full-length receptor transfected in HEK293A cells; AT1 (human)-mCherry plasmid for NFAT assay
T1 sequence (P30556 1-359 C289S): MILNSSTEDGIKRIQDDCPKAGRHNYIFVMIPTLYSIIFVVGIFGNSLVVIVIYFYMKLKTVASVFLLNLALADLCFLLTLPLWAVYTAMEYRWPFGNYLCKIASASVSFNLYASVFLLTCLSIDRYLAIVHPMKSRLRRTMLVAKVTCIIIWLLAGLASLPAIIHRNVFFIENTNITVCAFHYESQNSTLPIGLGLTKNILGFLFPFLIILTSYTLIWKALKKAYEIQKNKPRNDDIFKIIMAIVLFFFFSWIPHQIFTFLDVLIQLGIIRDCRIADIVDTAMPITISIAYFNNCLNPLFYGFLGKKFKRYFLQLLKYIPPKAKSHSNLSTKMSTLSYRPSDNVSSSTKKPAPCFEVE
Kind of experiment: […]-Ang II competition binding, membranes.

Experiment [2] deals with T2, human AT1 receptor (angiotensin II type 1 receptor) (Homo sapiens, UniProt P30556).
T2 construct: gene AGTR1; full-length receptor transfected in HEK293A cells; AT1 (human)-mCherry plasmid for NFAT assay
T2 sequence (P30556 1-359): T1 sequence (P30556 1-359 C289S) with S289C
Put plainly: […]-Ang II competition binding, membranes.

Experiment [3] has as its target T2, human AT1 receptor (angiotensin II type 1 receptor). Put plainly: Ca2+ flux, Fluo-3-AM, HEK293A cells. The format is cell-based. A general note: Calcium assays in cells follow changes in intracellular calcium, usually with a dye or a luminescent sensor.
Experiment [4] has as its target T3, human AT1 receptor (angiotensin II type 1 receptor) (Homo sapiens, UniProt P30556, R167A).
T3 construct: gene AGTR1; full-length receptor transfected in HEK293A cells; AT1 (human)-mCherry plasmid for NFAT assay
T3 sequence (P30556 1-359 R167A): T1 sequence (P30556 1-359 C289S) with R167A, S289C
Put plainly: […]-Ang II competition binding, membranes.

Substitutions are numbered along the chain they refer to.

For `NC(CCS)C(=O)O` (racemic) [Hcy], the figures for the Ki in experiment [1], in experiment [2] and in experiment [4] were 159 µM, 10.7 µM and 92 µM, respectively. For the same molecule, the response in experiment [3] was half-maximal at 81.3 µM (EC50).
